Some test systems named below: IGROV-1; SW-620; A549; ACHN; T47D; NCI-H460; PC-3; HCC 2998; NCI-H226; COLO 205; CCRF-CEM; SN12C; Hs-578T; SK-OV-3; SF-539; MCF7; HOP-62; RXF 393; EKVX; RPMI-8226.
Holding throughout (assay): NCI tumour cell line growth inhibition, 48 h

We go through twelve molecules from ChEMBL document CHEMBL1201862, “PubChem BioAssay data set” (2004).

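The compound was tested at five concentrations on cells cultured in 96-well plates, with a 48-hour exposure period. GI50: concentration for 50% inhibition of growth.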 Activity calls are given as the source filed them. Cut-off read from the data, not from the text of the source: active = GI50 up to about 1.1 µM and inactive = higher. Where only a bound is given, the exact number is not on record here.

For the molecule `O=C(NCCCN(CCCCN(CCCNC(=O)c1cc(S(=O)(=O)O)cc(O)c1O)C(=O)c1cc(S(=O)(=O)O)cc(O)c1O)C(=O)c1cc(S(=O)(=O)O)cc(O)c1O)c1cc(S(=O)(=O)O)cc(O)c1O`, the GI50 with IGROV-1, in the assay on SW-620, with A549, with ACHN, with T47D and in the assay on NCI-H460 was > 100 µM (inactive) in each case. Also, the GI50 with PC-3, in the assay on HCC 2998, in the assay with NCI-H226, in the assay with COLO 205, in the assay with CCRF-CEM and in the assay with SN12C was > 100 µM (inactive) throughout. Besides, in the assay on Hs-578T, the GI50 is > 100 µM (inactive).

On to `O=c1c2ccccc2n2c(-c3ccccc3O)nnc2n1-c1ccccc1`, for which the GI50 in the assay on SK-OV-3, in the assay on IGROV-1, with SW-620, in the assay on A549, in the assay on ACHN and with SF-539 was > 100 µM (inactive) throughout. Besides, the GI50 in the assay on T47D, in the assay on MCF7, in the assay with NCI-H460, in the assay on PC-3, in the assay on HCC 2998 and in the assay with HOP-62 was > 100 µM (inactive) in each case. Also, the GI50 was > 100 µM (inactive) in the assay on RXF 393; > 100 µM (inactive) in the assay on NCI-H226; > 100 µM (inactive) in the assay on COLO 205; 67.3 µM (inactive) with CCRF-CEM; > 100 µM (inactive) in the assay on EKVX; > 100 µM (inactive) in the assay on SN12C.

Consider `Cc1ccc(S(=O)(=O)NC(=O)NC(Cc2ccc(O)c(O)c2)C(=O)O)cc1` (configuration not stated), for which the GI50 was > 100 µM (inactive) in the assay on IGROV-1; 24.9 µM (inactive) in the assay on SW-620; > 100 µM (inactive) in the assay with A549; > 100 µM (inactive) in the assay on ACHN; > 100 µM (inactive) with T47D; > 100 µM (inactive) in the assay with MCF7. Besides, the GI50 was > 100 µM (inactive) with NCI-H460; > 100 µM (inactive) in the assay on PC-3; 55.7 µM (inactive) in the assay on RPMI-8226; > 100 µM (inactive) in the assay on HOP-62; 14 µM (inactive) in the assay on RXF 393; > 100 µM (inactive) in the assay with NCI-H226. In addition, the GI50 in the assay with COLO 205 was > 100 µM (inactive); in the assay on CCRF-CEM it was 25.1 µM (inactive); in the assay with EKVX, > 100 µM (inactive); with SN12C, > 100 µM (inactive).

On to `COC(=O)/C=C/CCC#Cc1ccccc1C#CCC/C=C/C(=O)OC`, for which the GI50 is 21.7 µM (inactive) in the assay with SK-OV-3; 4.88 µM (inactive) in the assay on IGROV-1; 4.89 µM (inactive) with SW-620; 15.3 µM (inactive) in the assay on A549; 23.7 µM (inactive) in the assay on ACHN; 10.5 µM (inactive) in the assay on SF-539. Also, the GI50 is 4.07 µM (inactive) in the assay on T47D; 6.41 µM (inactive) with MCF7; 12.4 µM (inactive) in the assay on NCI-H460; 14.3 µM (inactive) in the assay on PC-3; 50.1 µM (inactive) with HCC 2998; 24.2 µM (inactive) in the assay with HOP-62. Besides, the GI50 with RXF 393 is 4.49 µM (inactive); with NCI-H226, 13.1 µM (inactive); in the assay on COLO 205 it was 5.48 µM (inactive); with CCRF-CEM it was 4.48 µM (inactive); with EKVX, 36.1 µM (inactive); in the assay with SN12C, 7.38 µM (inactive).

With `N#CC(C#N)=c1c(=O)c2c3ccccc3cc3cccc1c32`, the GI50 is > 100 µM (inactive) in the assay with SK-OV-3; 40.6 µM (inactive) in the assay with IGROV-1; > 100 µM (inactive) in the assay with SW-620; > 100 µM (inactive) in the assay on A549; 37.1 µM (inactive) in the assay with ACHN; > 100 µM (inactive) with T47D. The GI50 with NCI-H460 is > 100 µM (inactive); with PC-3, 55.7 µM (inactive); with RPMI-8226, > 100 µM (inactive); in the assay on HCC 2998, > 100 µM (inactive); in the assay on HOP-62 it was 29 µM (inactive); in the assay with NCI-H226 it was > 100 µM (inactive). Besides, the GI50 is > 100 µM (inactive) in the assay with COLO 205, > 100 µM (inactive) with CCRF-CEM, > 100 µM (inactive) in the assay on SN12C and 31.5 µM (inactive) in the assay on Hs-578T.

`C1=C(c2ccccc2)NC2=N[C@H]3CCCC[C@@H]3N2C1c1ccccc1` (some centres not stated): the GI50 with SK-OV-3 was 15.8 µM (inactive); in the assay on IGROV-1, 13 µM (inactive); with SW-620, 13.2 µM (inactive); with ACHN it was 13.7 µM (inactive); with T47D, 16.4 µM (inactive); in the assay on NCI-H460, 11 µM (inactive). Moreover, the GI50 with PC-3 was 11.4 µM (inactive); in the assay with RPMI-8226, 4.82 µM (inactive); with HCC 2998 it was 14.4 µM (inactive); in the assay on NCI-H226 it was 13.4 µM (inactive); in the assay on COLO 205 it was 11 µM (inactive); with CCRF-CEM, 6.67 µM (inactive). The GI50 in the assay on EKVX was 14.4 µM (inactive); in the assay with Hs-578T, 17.2 µM (inactive).

Regarding `CN(N)C(=O)NCCCl`, the GI50 with SK-OV-3, in the assay on IGROV-1, in the assay on SW-620, with A549, in the assay on ACHN and in the assay on SF-539 was > 100 µM (inactive) each time. The GI50 with MCF7, in the assay on NCI-H460, with PC-3, in the assay on RPMI-8226, in the assay on HCC 2998 and in the assay with HOP-62 was > 100 µM (inactive) in each case. The GI50 with RXF 393 was > 100 µM (inactive); with NCI-H226 it was 0.23 µM (active); with COLO 205, > 100 µM (inactive); in the assay on CCRF-CEM it was > 100 µM (inactive); with EKVX it was > 100 µM (inactive); in the assay on SN12C it was > 100 µM (inactive). The GI50 in the assay with Hs-578T was > 100 µM (inactive).

With `Cc1cc(=O)c2cc(/N=C/c3ccc([N+](=O)[O-])o3)ccc2o1`, the GI50 in the assay with SK-OV-3 was > 100 µM (inactive); in the assay on IGROV-1 it was > 100 µM (inactive); in the assay with SW-620, 63.5 µM (inactive); in the assay with A549 it was > 100 µM (inactive); in the assay with ACHN, 91.6 µM (inactive); in the assay with SF-539 it was > 100 µM (inactive). Further, the GI50 with T47D was > 100 µM (inactive); in the assay on MCF7, 24.3 µM (inactive); in the assay with NCI-H460, > 100 µM (inactive); in the assay on RPMI-8226, 35.5 µM (inactive); in the assay on HCC 2998, > 100 µM (inactive); in the assay on HOP-62, > 100 µM (inactive). In addition, the GI50 in the assay with NCI-H226 was > 100 µM (inactive); in the assay with COLO 205, > 100 µM (inactive); with CCRF-CEM, 41.1 µM (inactive); with EKVX it was > 100 µM (inactive); in the assay on SN12C it was > 100 µM (inactive); in the assay on Hs-578T, > 100 µM (inactive).

With `Cc1cc2c(cc1Cl)SC(NNC(=O)c1ccncc1)=NS2(=O)=O`, the GI50 in the assay on SK-OV-3, with IGROV-1, in the assay with SW-620, in the assay with A549, with ACHN and in the assay on SF-539 was > 10 µM (inactive) each time. Besides, the GI50 in the assay with T47D, in the assay with NCI-H460, in the assay with PC-3, in the assay on RPMI-8226, with HCC 2998 and with HOP-62 was > 10 µM (inactive) in each case. The GI50 in the assay on RXF 393, in the assay on NCI-H226, in the assay on COLO 205, with CCRF-CEM, in the assay on EKVX and in the assay on SN12C was > 10 µM (inactive) throughout. The GI50 in the assay with Hs-578T is > 10 µM (inactive).

For `COC(=O)[C@@]12C(=O)C(C)C(=O)[C@]1(C)C(C)=C[C@H]1[C@]3(C=O)CC[C@H](OC(C)=O)C(C)(C)[C@H]3CC[C@@]12C` (some centres not stated), the GI50 in the assay on SK-OV-3, with SW-620, in the assay on A549, in the assay with ACHN, with SF-539 and in the assay with T47D was > 100 µM (inactive) in each case. Also, the GI50 in the assay with NCI-H460 is > 100 µM (inactive); in the assay with PC-3 it was > 100 µM (inactive); with RPMI-8226, 75.2 µM (inactive); with HCC 2998, > 100 µM (inactive); in the assay on HOP-62 it was > 100 µM (inactive); in the assay with RXF 393, > 100 µM (inactive). Further, the GI50 with NCI-H226 was > 100 µM (inactive); in the assay on COLO 205, > 100 µM (inactive); in the assay with CCRF-CEM, 4.06 µM (inactive); in the assay on EKVX, > 100 µM (inactive); in the assay on Hs-578T it was > 100 µM (inactive).

Regarding `CN1CCN(C(=S)N(C(=O)c2ccco2)c2ccccc2)CC1`, the GI50 in the assay on IGROV-1, in the assay with SW-620, in the assay with A549, with ACHN, with T47D and in the assay on MCF7 was > 100 µM (inactive) in each case. Besides, the GI50 in the assay with NCI-H460, in the assay on RPMI-8226, in the assay on HCC 2998, in the assay with RXF 393, in the assay with NCI-H226 and in the assay with COLO 205 was > 100 µM (inactive) throughout. In addition, the GI50 with CCRF-CEM, in the assay on SN12C and in the assay on Hs-578T was > 100 µM (inactive) throughout.

`CCCCC(=O)Nc1ccc2c(C)cc(-c3ccc(-c4cc(-c5ccc(C)cc5)cc(-c5ccc(-c6cc(C)c7ccc(NC(=O)CCCC)nc7n6)cc5)n4)cc3)nc2n1`: the GI50 with SK-OV-3, with A549, with ACHN, in the assay on T47D, in the assay with MCF7 and in the assay on NCI-H460 was > 100 µM (inactive) each time. Besides, the GI50 in the assay with PC-3, with RPMI-8226, in the assay on HCC 2998, in the assay with HOP-62, in the assay with COLO 205 and in the assay on CCRF-CEM was > 100 µM (inactive) each time. Moreover, the GI50 with EKVX and in the assay on SN12C was > 100 µM (inactive) in each case.
